# According to patent US20260055108A1, “TRIAZINE COMPOUNDS AND USES THEREOF” (HUTCHMED LIMITED, priority 2022, published 2026):
# How the values were obtained:
# [1] = molecular target: Recombinant human Menin protein (2-610) / MLL polypeptide binding (Homo sapiens (Human), UniProt O00255); test: Menin and MLL protein binding at a molecular level (fluorescence polarization method); conditions: inhibition of Menin / MLL polypeptide binding
# In short: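 Binding of recombinant human Menin (2-610) to 6-FAM-labelled MLL peptide measured by fluorescence polarization (ex 480/em 535 nm) in Tris/NaCl/TCEP buffer, pH 7.5, 2% DMSO. Compound preincubated with Menin 30 min at room temperature, then peptide added for 30 min in the dark. Tested at 1.000 down to 0.0005 μM final.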
# [2] = test system: MV-4-11 cells (human acute myelogenous leukemia cell line carrying MLL-AF4 mutation); test: Cell proliferation assay, MV-4-11 (CellTiter-Glo); type: cell-based; conditions: Homo sapiens, MV4-11, 72 h, MV-4-11 cells, 3 days treatment, CellTiter-Glo; read-out: GI50
# In short: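 MV-4-11 cells (3000/well, IMDM with 10% HIFBS and 50 μM β-mercaptoethanol) exposed to compound at 1.100–0.001 μM final, 0.1% DMSO, for 3 days at 37°C. Viability read by CellTiter-Glo luminescence on day 0 and day 3, normalised to day-0 and untreated wells.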
# Chain of Recombinant human Menin protein (2-610) / MLL polypeptide binding (O00255 2-610): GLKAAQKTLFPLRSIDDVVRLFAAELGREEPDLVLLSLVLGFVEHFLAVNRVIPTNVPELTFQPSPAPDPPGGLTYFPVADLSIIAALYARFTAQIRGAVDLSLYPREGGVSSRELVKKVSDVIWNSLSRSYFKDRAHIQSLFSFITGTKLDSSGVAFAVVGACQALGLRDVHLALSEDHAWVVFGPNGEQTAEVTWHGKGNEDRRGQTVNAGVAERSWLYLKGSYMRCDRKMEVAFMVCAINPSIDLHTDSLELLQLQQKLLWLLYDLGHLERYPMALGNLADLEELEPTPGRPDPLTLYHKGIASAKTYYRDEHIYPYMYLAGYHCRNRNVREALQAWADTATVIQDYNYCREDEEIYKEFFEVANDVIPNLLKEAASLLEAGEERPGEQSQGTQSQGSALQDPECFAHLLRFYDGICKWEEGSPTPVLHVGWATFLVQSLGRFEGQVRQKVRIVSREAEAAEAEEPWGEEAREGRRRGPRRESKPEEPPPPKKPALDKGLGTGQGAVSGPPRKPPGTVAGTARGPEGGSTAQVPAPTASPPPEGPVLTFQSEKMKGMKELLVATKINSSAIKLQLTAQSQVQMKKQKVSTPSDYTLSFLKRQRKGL
SMILES,IC50 [1] [nM],GI50 [2] [nM]
CCN(C(=O)c1cc(F)ccc1Oc1nncnc1N1CC2(CCN(CC3CCN(c4cc(OC)cnn4)CC3)CC2)C1)C(C)C [Compound 89],2.8,4
CCN(C(=O)c1cc(F)ccc1Oc1nncnc1N1CC2(CCN(CC3CCN(C(=O)CNC4CC4)CC3)CC2)C1)C(C)C [Compound 7],50.2,80
CCN(C(=O)c1cc(F)ccc1Oc1nncnc1N1CC2(CCN(CC3CCC(O)(c4ccccn4)CC3)CC2)C1)C(C)C (stereo not drawn) [Compound 125],> 200,585
"[2H]C(c1ccc2[nH]c(C#N)cc2c1C)N1CCC2(CC1)CN(c1ncnnc1Oc1ccc(F)cc1C(=O)N(CC)C(C)C)C2 (stereo not drawn) [Compound 175, 2-((5-(7-((2-cyano-4-methyl-1H-indol-5-yl)methyl-d)-2,7-diazaspiro[3.5]nonan-2-yl)-1,2,4-triazin-6-yl)oxy)-N-ethyl-5-fluoro-N-isopropylbenzamide]",1.5,4
CCN(C(=O)c1cc(F)ccc1Oc1nncnc1N1CC2(CCN(Cc3ccc4[nH]c(C#N)cc4c3C)CC2)C1)C(C)C [Compound 66],1.2,3
"CCN(C(=O)c1cc(F)ccc1Oc1nncnc1N1CC2(CCN(CC3CCN(c4ccccn4)CC3)CC2)C1)C(C)C [Compound 57, N-ethyl-5-fluoro-N-isopropyl-2-((5-(7-((1-(pyridin-2-yl)piperidin-4-yl)methyl)-2,7-diazaspiro[3.5]nonan-2-yl)-1,2,4-triazin-6-yl)oxy)benzamide]",3,5
C[C@H]1COCCN1C(=O)c1cc(F)ccc1Oc1nncnc1N1CC2(CCN(CC3CCN(c4ccccn4)CC3)CC2)C1 [Compound 77],73.8,60
"CCN(C(=O)c1cc(F)ccc1Oc1nncnc1N1CC(C2(N(C)Cc3cc(C(N)=O)n(C)n3)CC2)C1)C(C)C [Compound 145, 3-(((1-(1-(6-(2-(ethyl(isopropyl)carbamoyl)-4-fluorophenoxy)-1,2,4-triazin-5-yl)azetidin-3-yl)cyclopropyl)(methyl)amino)methyl)-1-methyl-1H-pyrazole-5-carboxamide]",> 1000,> 3300
CCN(C(=O)c1cc(F)ccc1Oc1nncnc1N1CC2(CCN(Cc3ccc4[nH]c(=O)ccc4c3)CC2)C1)C(C)C [Compound 72],28,81
CCN(C(=S)c1cc(F)ccc1Oc1nncnc1N1CC2(CCN(CC3CCN(c4cc(OC)c(OC)nn4)CC3)CC2)C1)C(C)C [Compound 107],3.3,9
CCN(C(=O)c1cc(F)ccc1Oc1nncnc1N1CC2(CCN(CC3CCN(c4cnc(Cl)nn4)CC3)CC2)C1)C(C)C [Compound 41],3.1,8
C=CC(=O)Nc1cccc(N2CC3(CCC(CN4CCC5(CC4)CN(c4ncnnc4Oc4ccc(F)cc4C(=O)N(CC)C(C)C)C5)CC3)C2)c1 [Compound 181],25.5,7
CCN(C(=O)c1cc(F)ccc1Oc1nncnc1N1CC2(CCN(Cc3ccc4nc(C)ncc4c3)CC2)C1)C(C)C [Compound 71],> 1000,1280
CCN(C(=O)c1cc(F)ccc1Oc1nncnc1N1CC2(CCN(CC3CCN(C(=O)C4CC(C)(C)C4)CC3)CC2)C1)C(C)C [Compound 4],3.2,8
CCN(C(=O)c1cc(F)ccc1Oc1nncnc1N1CC2(CCN(CC3CCN(c4cc(C#N)cnn4)CC3)CC2)C1)C(C)C [Compound 48],4.7,15
CCN(C(=O)c1cc(F)ccc1Oc1nncnc1N1CC2(CCN(CC3CCN(C(=O)c4ccccn4)CC3)CC2)C1)C(C)C [Compound 15],41.8,44
COc1cc(N2CCC(CN3CCC4(CC3)CN(c3ncnnc3Oc3ccc(Cl)cc3)C4)CC2)nnc1OC [Compound 103],114,107
CCN(C(=O)c1cc(F)ccc1Oc1nncnc1N1CC2(CCN(CC3(N(C)CCOC)CC3)CC2)C1)C(C)C [Compound 140],31.6,37
COc1cc(N2CCC(CN3CCC4(CC3)CN(c3ncnnc3Oc3ccc(F)cc3)C4)CC2)nnc1OC [Compound 102],15.9,28
CCN(C(=O)c1cc(F)ccc1Oc1nncnc1N1CC2(CCN(CC3CCN(c4ccc5nccn5n4)CC3)CC2)C1)C(C)C [Compound 43],6.4,13
CCN(C(=O)c1cc(F)ccc1Oc1nncnc1N1CC2(CCN(CC3CCN(c4ccc(N)nn4)CC3)CC2)C1)C(C)C [Compound 87],37.2,156

SMILES,IC50 [1] [nM],GI50 [2] [nM]
CCN(C(=O)c1cc(F)ccc1Oc1nncnc1N1CC2(CCN(Cc3ccc4nc(OC)ncc4c3)CC2)C1)C(C)C [Compound 70],> 1000,2150
"CCNC(=O)c1cc(F)ccc1Oc1nncnc1N1CC2(CCN(CC3CCN(c4cc(OC)c(OC)nn4)CC3)CC2)C1 [Compound 178, 2-((5-(7-((1-(5,6-dimethoxypyridazin-3-yl)piperidin-4-yl)methyl)-2,7-diazaspiro[3.5]nonan-2-yl)-1,2,4-triazin-6-yl)oxy)-N-ethyl-5-fluorobenzamide]",124,126
"COc1cc(N2CCC(CN3CCC4(CC3)CN(c3ncnnc3Oc3ccc(F)cc3C(=O)O)C4)CC2)nnc1OC [Compound 184, 2-((5-(7-((1-(5,6-dimethoxypyridazin-3-yl)piperidin-4-yl)methyl)-2,7-diazaspiro[3.5]nonan-2-yl)-1,2,4-triazin-6-yl)oxy)-5-fluorobenzoic acid]",> 100,> 1100
CCN(C(=O)c1cc(F)ccc1Oc1nncnc1N1CCC2(CN(CC3CCN(c4cc(OC)c(OC)nn4)CC3)C2)C1)C(C)C [Compound 94],0.8,2
CCN(C(=O)c1cc(F)ccc1Oc1nncnc1N1CC2(CCN(Cc3ccc(NCC#N)cc3C)CC2)C1)C(C)C [Compound 61],89.4,110
COc1cc(N2CCC(CN3CCC4(CC3)CN(c3ncnnc3Oc3ccc(F)cc3C(=O)OC(C)C)C4)CC2)nnc1OC [Compound 106],0.9,7
CCN(C(=O)c1cc(F)ccc1Oc1nncnc1N1CC2(CCN(CC3CCN(c4nnc(OC)cc4OC)CC3)CC2)C1)C(C)C [Compound 96],30,59
"C=CC(=O)N1CCC(CN2CCC3(CC2)CN(c2ncnnc2Oc2ccc(F)cc2C(=O)N(CC)C(C)C)C3)CC1 [Compound 20, 2-((5-(7-((1-acryloylpiperidin-4-yl)methyl)-2,7-diazaspiro[3.5]nonan-2-yl)-1,2,4-triazin-6-yl)oxy)-N-ethyl-5-fluoro-N-isopropylbenzamide]",98.7,58
CCN(C(=O)c1cc(F)ccc1Oc1nncnc1N1CC2(CCN(CC3CCN(C(=O)NC(C)C)CC3)CC2)C1)C(C)C [Compound 29],2.5,15
COc1cc(N2CCC(CN3CCC4(CC3)CN(c3ncnnc3Oc3ccc(F)cc3-c3ccnn3C(C)C)C4)CC2)nnc1OC [Compound 101],0.9,2
CCN(C(=O)c1cc(F)ccc1Oc1nncnc1N1CC2(CCN(CC3CCN(c4cccc(=O)n4C)CC3)CC2)C1)C(C)C [Compound 168],> 200,133
"CCN(C(=O)c1cc(F)ccc1Oc1nncnc1N1CC2(CCN(CC3CCN(c4cccc(CO)n4)CC3)CC2)C1)C(C)C [Compound 132, N-ethyl-5-fluoro-2-((5-(7-((1-(6-(hydroxymethyl)pyridin-2-yl)piperidin-4-yl)methyl)-2,7-diazaspiro[3.5]nonan-2-yl)-1,2,4-triazin-6-yl)oxy)-N-isopropylbenzamide]",2.7,9
"CCN(C(=O)c1cc(F)ccc1Oc1nncnc1N1CC2(CCN(C(C)C3CCN(c4cc(OC)c(OC)nn4)CC3)CC2)C1)C(C)C (stereo not drawn) [Compound 171, 2-((5-(7-(1-(1-(5,6-dimethoxypyridazin-3-yl)piperidin-4-yl)ethyl)-2,7-diazaspiro[3.5]nonan-2-yl)-1,2,4-triazin-6-yl)oxy)-N-ethyl-5-fluoro-N-isopropylbenzamide]",41.3,56
CCN(C(=O)c1cc(F)ccc1Oc1nncnc1N1CC2(CCN(CC3CCN(c4cc(C)c(OC)nn4)CC3)CC2)C1)C(C)C [Compound 97],0.9,1
CCN(C(=O)c1cc(F)ccc1Oc1nncnc1N1CC2(CCN(CC3CCN(C(=O)C4(O)CC4)CC3)CC2)C1)C(C)C [Compound 11],5.1,20
CCN(C(=O)c1cc(F)ccc1Oc1nncnc1N1CC2(CCN(CC3CCN(c4ccc5ncnn5c4)CC3)CC2)C1)C(C)C [Compound 56],28.4,45
CCN(C(=O)c1cc(F)ccc1Oc1nncnc1N1CC2(CCN(CC3CCN(C(=O)NC(C)(C)C)CC3)CC2)C1)C(C)C [Compound 30],1.7,5
CCN(C(=O)c1cc(F)ccc1Oc1nncnc1N1CC2(CCN(CC3CCN(C(=O)C(F)(F)F)CC3)CC2)C1)C(C)C [Compound 21],97.9,116
CCN(C(=O)c1cc(F)ccc1Oc1nncnc1N1CC2(CCN(Cc3ccc4[nH]ncc4c3)CC2)C1)C(C)C [Compound 64],163,226
CCN(C(=O)c1cc(F)ccc1Oc1nncnc1N1CCC(C2(N(Cc3ccc4[nH]c(C#N)cc4c3C)C(C)C)CC2)C1)C(C)C (stereo not drawn) [Compound 143],> 1000,2950
CCN(C(=O)c1cc(F)ccc1Oc1nncnc1N1CC2(CCN(Cc3ccc4oc(C(=O)NC)cc4c3)CC2)C1)C(C)C [Compound 74],418,176
